In patent US20220175850A1, “COMPOSITIONS AND METHODS FOR CANCER THERAPY” (priority 2019, published 2022):

Tests used:
[1] = tested on: triple negative breast cancer cells; test: Tumor marker expression in animal model of triple negative breast cancer, supplement with or without chemotherapeutic drugs; format: in vivo, mice
Experimental: […] Animals were also treated with taxol, taxol and the supplement in combination, adriamycin, adriamycin and the supplement in combination, avastin, and avastin and the supplement in combination.
FIG. 9A depicts a typical study design for animal model studies of this phenomena. Three different supplement formulations were used that provided low (NFS), mid (NFM-containing 1.5 times the Se content of NFS), and high (NFH, containing twice the Se content of NFS) doses of selenium and fish oil. These supplement formulations were provided in combination with a chemotherapeutic drug (such as Taxol or Adriamycin).
As noted above, nutritional supplements can be provided that include different amounts of selenium (Se), and can also be provided with or used in combination with a chemotherapeutic agent.
CD24 and CD29 are markers that are commonly used to determine degree of stem cell character. […] Mice were also treated with taxol, taxol and the supplement in combination, adriamycin, adriamycin and the supplement in combination, avastin, and avastin and the nutritional supplement in combination. […] As in FIG. 9, nutritional supplements containing low, mid, and high amounts of selenium were provided in combination with either avastin or taxol.

[2] = tested on: triple negative breast cancer cells; test: as above; format: in vivo, mice; conditions: primary tumor; supplement at low, mid, high dose with Taxol or Adriamycin; drugs alone
[3] = tested on: A549 human lung cancer sphere cells; test: Marker protein expression in stem-cell like A549 sphere cells; format: cell-based
Description: FIG. 7B depicts an exemplary Western blot of PD-L1 expression in stem-cell like sphere cells derived from A549 human lung cancer cells.

[4] = tested on: HCC827GR cells; test: Marker protein expression in Iressa-resistant HCC827GR lung cancer cells; format: cell-based, human
Description: The HCC827GR cell line is a lung cancer cell line that is resistant to Iressa.

[5] = tumor, supplement at low, mid, high doses in combination with taxol or avastin, drug alone
[6] = metastatic brain tumor site, different amounts of supplement in combination with Taxol, taxol alone

In the case of “avastin: chemotherapeutic agent used in the animal tumor model”, the CXCR4 expression ([1]; tumor tissue, avastin alone or cotherapy with supplement at low, mid, high doses) is reported as “little effect”, the p-PTEN expression [1, 5] is reported as “decrease induced by either taxol or avastin” and the p-STAT3 expression [1, 5] is reported as “decrease induced by either taxol or avastin”.
In the case of `CC(=O)O[C@H]1C(=O)[C@@]2(C)[C@H]([C@H](OC(=O)c3ccccc3)[C@]3(O)C[C@H](OC(=O)[C@H](O)[C@@H](NC(=O)c4ccccc4)c4ccccc4)C(C)=C1C3(C)C)[C@]1(OC(C)=O)CO[C@@H]1C[C@@H]2O` [taxol], the PD-1 expression [2] is reported as “increased slightly”, the PD-L1 expression [2] is reported as “no apparent effect” and the CD24 expression [1, 6] is reported as “no apparent effect”. The CD29 expression [1, 6] was “no apparent effect”, the MMP-9 expression [1, 6] was “no apparent effect” and the VEGF expression [1, 6] was “no apparent effect”. The EGFR expression ([1]; tumor tissue, supplement with different amounts of selenium co-treated with taxol or avastin, drug alone) was “not impacted”, the PTEN expression [1, 5] was “increase induced by taxol” and the p-PTEN expression [1, 5] was “decrease induced by either taxol or avastin”. For the same compound, the p-STAT3 expression [1, 5] was “decrease induced by either taxol or avastin”.
For selenium, the p-HSP27 expression [3] was “not found” and the vimentin expression [3] was “not seen”.
For `COc1cccc2c1C(=O)c1c(O)c3c(c(O)c1C2=O)C[C@@](O)(C(=O)CO)C[C@@H]3O[C@H]1C[C@H](N)[C@H](O)[C@H](C)O1` [adriamycin], the PD-1 expression [2] was “increased slightly” and the PD-L1 expression [2] was “no apparent effect”.
With `COc1cc2ncnc(Nc3ccc(F)c(Cl)c3)c2cc1OCCCN1CCOCC1` [Iressa] the Axl expression ([4]; 24 hours of treatment, in either the absence or presence of Iressa) was “not reduced”, the Axl expression ([4]; 72 hours) was “no apparent effect” and the HSP90 expression ([4]; 72 hours) was “no apparent effect”. The PD-L1 expression ([4]; chemotherapy resistant cancer cells) was “has no effect”.
